Test results from PubChem BioAssay (NCI).
Values joined by “and” are separate entries in the source; they are usually repeats but may differ in a detail not shown here. Equal values may be shown once.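 Each compound was tested at five concentrations against cells in 96-well plates for 48 hours. Abbreviation: GI50, concentration required for 50% inhibition of growth. TGI marks complete inhibition of growth.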

Tests used:
Test in all cases: growth of human tumour cells (NCI), 48 h
IGROV1 ovarian = tested on: IGROV1 ovarian
K-562 leukemia = tested on: K-562 leukemia
LOX IMVI melanoma = tested on: LOX IMVI melanoma
OVCAR-8 ovarian = tested on: OVCAR-8 ovarian
RPMI-8226 leukemia = tested on: RPMI-8226 leukemia
SK-OV-3 ovarian = tested on: SK-OV-3 ovarian
SN12C renal = tested on: SN12C renal
SNB-19 CNS = tested on: SNB-19 CNS
T-47D breast = tested on: T-47D breast
HOP-92 NSCLC = tested on: HOP-92 NSCLC

SMILES	GI50 (IGROV1 ovarian) [µM]	TGI (IGROV1 ovarian)	GI50 (K-562 leukemia) [µM]	TGI (K-562 leukemia)	GI50 (LOX IMVI melanoma) [µM]	TGI (LOX IMVI melanoma)	GI50 (OVCAR-8 ovarian) [µM]	TGI (OVCAR-8 ovarian)	GI50 (RPMI-8226 leukemia) [µM]	TGI (RPMI-8226 leukemia)	GI50 (SK-OV-3 ovarian) [µM]	TGI (SK-OV-3 ovarian) [µM]	GI50 (SN12C renal) [µM]	TGI (SN12C renal)	GI50 (SNB-19 CNS) [µM]	TGI (SNB-19 CNS) [µM]	GI50 (T-47D breast) [µM]	TGI (T-47D breast) [µM]	GI50 (HOP-92 NSCLC) [µM]	TGI (HOP-92 NSCLC) [µM]
CN(C)[C@@H]1C(=O)C(C(=O)NCc2nc3[nH]cnc(=S)c3[nH]2)=C(O)[C@@]2(O)C(=O)C3=C(O)c4c(O)cccc4[C@@](C)(O)[C@H]3C[C@@H]12	16	> 100 µM	1.41	> 100 µM	1.23	> 100 µM	6.78	> 100 µM	4.35	> 100 µM	2	> 100	59.9	> 100 µM	> 100	> 100	1.95	> 100	–	–
O=[N+]([O-])c1ccc(/C=C/c2ccc(/C=C/c3ccc([N+](=O)[O-])cc3[N+](=O)[O-])cc2)c([N+](=O)[O-])c1	–	> 100 µM	–	> 100 µM	–	–	–	> 100 µM	–	> 100 µM	–	> 100	–	–	–	–	–	–	–	–
COc1cc2c(cc1OCCN1CCN(CCN3C(=O)c4cccc5cccc(c45)C3=O)CC1)N=C[C@@H]1CCCN1C2=O	19.2	36.9 µM	25.2	57.7 µM	32.7	> 100 µM	19.9	44.3 µM	17.1	34.8 µM	27.8	46.5	23.2	58.6 µM	29.9	53.7	–	–	–	–
CN(C)CCCC1(c2ccc(F)cc2)OCc2cc(-c3csc4ccccc34)ccc21 (configuration not stated)	1.35	2.96 µM	1.72	3.45 µM	1.65	3.16 µM	1.87	3.84 µM	–	–	1.61	3.12	1.63	3.13 µM	1.6	3.04	1.71	3.7	1.4	2.95
C/C(=C\c1ccccc1)C(O)C(=O)c1nc2ccc(Cl)cc2[nH]c1=O (configuration not stated)	–	> 100 µM	–	> 100 µM	–	> 100 µM	–	> 100 µM	–	> 100 µM	–	> 100	–	> 100 µM	–	> 100	–	–	–	–
CN(C)CCNC(=O)c1cccc2c1nc(-c1cccnc1)c1ccccc12	–	26.3 µM	–	65.4 µM	–	12.6 µM	–	54.8 µM	–	–	–	31.2	–	35.4 µM	–	36.8	–	–	–	19.1
Cc1cccc(Oc2ccc(Nc3ncnc4ccc(NC(=O)CN(C)C)cc34)cc2Cl)c1	0.376	2.41 µM	1.91	4.63 µM	1.53	2.86 µM	2.72	11.3 µM	–	–	0.828	7.24	1.34	3.13 µM	2.11	6.35	1.08	4.59	1.4	3.99
CC(C)(C)C1CCC(O)(c2ccccc2)CC1 (configuration not stated)	–	> 100 µM and 81.5 µM	–	> 100 µM and 68.2 µM	–	> 100 µM and 30.3 µM	–	> 100 µM and 46.9 µM	–	> 100 µM and 66.6 µM	–	> 100	–	> 100 µM and 34.7 µM	–	> 100	–	–	–	–
ON1CCc2c([nH]c3ccccc23)C1c1ccc(Cl)cc1 (configuration not stated)	–	–	–	> 100 µM	–	37.4 µM	–	> 100 µM	–	84.3 µM	–	> 100	–	81 µM	–	> 100	–	–	–	41.1
